According to patent publication US20090318385A1, “Pyrazolopyride derivative and phosphodiesterase ( pde) inhibitors containing the same as active ingredient” (priority 2006, published 2009):

Assays:
PDE4B catalytic domain = target: T1, PDE4B catalytic domain (Homo sapiens, UniProt Q07343); experiment: Phosphodiesterase inhibitory activity (recombinant PDE4Bcat, [3H]cAMP); type: biochemical; settings: 30° C. for 20 minutes, read-out: IC50 (μmol/L) PDE4
T1 construct: The cDNA of PDE4B catalytic domain (hereinafter abbreviated as Cat) was isolated from human RNA by RT-PCR; made in house; host or cells: Sf9 insect cells (baculovirus, Bac-to-Bac)
Excerpt: The cDNA of PDE4B catalytic domain (hereinafter abbreviated as Cat) was isolated from human RNA by RT-PCR. The isolated cDNA fragments were inserted into Sf9 insect cells using Gateway system (product of Invitrogen Corporation) and Bac-to-Bac (registered trademark) Baculovirus Expression system (product of Invitrogen Corporation) to express a target PDE protein. The recombinant PDE4Bcat was purified from the culture supernatants or cell extracts of Sf9 cells expressing high levels of the PDE protein by ion exchange chromatography and was used for the following experiments.
A 4 mmol/L solution of each test compound was serially diluted four-fold with a 15% DMSO solution to prepare solutions with concentrations of 15 nmol/L to 4 mmol/L (the final concentrations used in the experiments were 1.5 nmol/L to 400 μmol/L). 10 μL of the prepared test compound solutions, [^3H] cAMP diluted with a buffer solution (40 mmol/L Tris-HCl (pH: 7.4), 10 mmol/L MgCl2), and 40 μL of the recombinant human PDE protein (2×10^−6 units, 1 unit is defined as the amount of PDE that breaks down 1 μmol/L of cAMP in one minute under the conditions of a pH of 7.5 and 30° C.) were added to a 96-well plate. The mixtures were reacted at 30° C. for 20 minutes. Then, the resultant mixtures were reacted at 65° C. for 2 minutes. Subsequently, […] of 1 mg/mL 5′-nucleotidase (Crotalusatrox venom, product of Sigma) was added to the mixtures, and the mixtures were reacted at 30° C. for 10 minutes. After completion of the reaction, 200 μL of a solution of Dowex (300 mg/mL Dowex 1x8-400 (product of Sigma Aldrich), 33% ethanol) was added to the mixtures, and the mixtures were shaken at 4° C. for 20 minutes. Subsequently, 200 μL of MicroScint 20 (product of Packard) was added to the mixtures, and measurement was performed using a scintillation counter (Topcount, product of Packard). IC50 values were calculated using Graph Pad Prism v3.03 (product of GraphPad Software). When 1 μmol/L>the IC50 value≧0.1 μmol/L, the results were represented by “+.” When 0.1 μmol/L>the IC50 value, the results were represented by “++.”

[1] = system: total number of leukocytes in bronchoalveolar lavage fluid after LPS inhalation; experiment: LPS acute inflammation model in rats; type: in vivo; settings: Rattus norvegicus, Leukocyte, po, 3 mg/kg orally one hour before LPS inhalation, total leukocytes in BALF 3 hours after LPS inhalation, read-out: Inhibition ratio
Method: 3 mg/kg of the compounds were orally administered to rats one hour before inhalation of lipopolysaccharide (LPS) from E. coli serotype 055:B5, rats were inhalted nebulizing LPS solution (50 mL) by nebulizer for 30 minutes. Then, 3 hours after the LPS inhalation, rats were euthanized with 20% urethane (5 ml/rat, i.p.) 5 ml of physiological saline for bronchoalveolar lavage was injected into the bronchoalveolar space through the airway, and the bronchoalveolar space was washed 3 times using a 5 mL syringe. This procedure was repeated twice, and the solution was collected as bronchoalveolar lavage fluid (BALF). The collected BALF was centrifuged at 1,200 rpm and 4° C. for 10 minutes (Hirtachi; himac CR 5 DL). The sediment was re-suspended in 10 mL of a 0.1% bovine serum albumin-physiological saline, and an equivalent amount of Turk's solution was added to the suspension to stain leukocytes. The total number of leukocytes was counted under a microscope to determine the inhibition ratio. When the inhibition ratio≧60%, the results were represented by “++.” When 60%>the inhibition ratio≧30%, the results were represented by “+.”

[2] = system: histamine-induced bronchoconstriction; experiment: Histamine-induced airway contraction reaction in guinea pigs; type: in vivo; settings: test compound 1 mg/kg i.v., histamine 12.5 μg/kg i.v., airflow 30 seconds after administration
Method: Guinea pigs were anesthetized with pentobarbital (30 mg/kg, i.p.). A cannula for intravenous administration, a cannula for collecting blood and measuring blood pressure, and a tracheal cannula were inserted into the left external jugular vein, right internal carotid artery, and trachea, respectively. The guinea pigs were maintained on artificial respiration under the conditions of 60 times/min and 10 mL/kg/stroke. The airflow from the side branch of the tracheal cannula was measured by a bronchospasm transducer (Ugo-Basile) and recorded on a computer via Power Lab (ADInstruments Japan). The guinea pigs were immobilized with gallamine (10 mg/kg, i.v.), and histamine was administered at 10-minute intervals (12.5 μg/kg, i.v.). After the histamine-induced bronchoconstriction was constant, one of the test compounds (1 mg/kg, i.v.) dissolved in DMSO was administered. We examined the inhibitory action of test compounds on histamine-induced bronchoconstriction 30 seconds after compounds administration. Bronchoconstriction was recorded as the value of airflow, and the results were represented by the ratio of the maximum value of the histamine-induced airflow 30 seconds after the administration to the maximum value of the airflow before the administration. When the inhibition ratio≧90%, the results were represented by “+++.” When 90%>the inhibition ratio≧70%, the results were represented by “++.” When 70%>the inhibition ratio≧30%, the results were represented by “+.”

T1 sequence (Q07343 330-659 limits assumed): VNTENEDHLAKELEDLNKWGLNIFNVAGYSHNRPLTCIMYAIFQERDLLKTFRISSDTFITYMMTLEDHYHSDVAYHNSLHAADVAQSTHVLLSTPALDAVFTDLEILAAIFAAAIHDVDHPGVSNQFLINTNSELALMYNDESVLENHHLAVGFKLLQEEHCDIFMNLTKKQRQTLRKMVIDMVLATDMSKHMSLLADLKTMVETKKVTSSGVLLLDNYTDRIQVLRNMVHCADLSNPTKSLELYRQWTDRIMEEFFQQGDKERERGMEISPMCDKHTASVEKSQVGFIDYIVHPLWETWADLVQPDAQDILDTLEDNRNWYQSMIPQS

Row | SMILES | melting point | IC50 (PDE4B catalytic domain) | inhibition in vivo at 3 mg/kg [1] | Inhibition ratio [2]
1 | COc1ccc(C(=O)Cc2ccncc2Cl)c2cc(C(F)(F)F)nn12 [Example 97, 2-(3-Chloropyridin-4-yl)-1-(7-methoxy-2-(trifluoromethyl)pyrazolo[1,5-a]pyridin-4-yl)ethanone] | 188 to 191 °C | – | – | –
2 | COc1ccc(C(=O)Cc2cc[n+]([O-])cc2)c2cc(C(F)(F)F)nn12 [Example 93, 4-(2-(7-Methoxy-2-(trifluoromethyl)pyrazolo[1,5-a]pyridin-4-yl)-2-oxoethyl)pyridine 1-oxide] | 157 to 161 °C (dec.) | < 0.1 µmol/L | ≥ 60% | –
3 | COc1ccc(C(O)Cc2c(Cl)cncc2Cl)c2cc(C(F)(F)F)nn12 (stereo not shown) [Example 87, 2-(3,5-Dichloropyridin-4-yl)-1-(7-methoxy-2-trifluoromethylpyrazolo[1,5-a]pyridin-4-yl)ethanol] | – | < 0.1 µmol/L | – | –
4 | COc1ccc(C(=O)Cc2c(Cl)cncc2Cl)c2cc(C(F)F)nn12 [Example 107, 2-(3,5-dichloropyridin-4-yl)-1-(2-(difluoromethyl)-7-methoxypyrazolo[1,5-a]pyridin-4-yl)ethanone] | 208 to 211 °C (dec.) | – | – | –
5 | COc1ccc(CCc2c(Cl)cncc2Cl)c2cc(C(F)F)nn12 [Example 102, 4-(2-(3,5-Dichloropyridin-4-yl)ethyl)-2-(difluoromethyl)-7-methoxypyrazolo[1,5-a]pyridine] | 153 to 156 °C | – | – | –
6 | COc1ccc(/C(=C/c2ccncc2)c2ccccc2)c2cc(C(F)(F)F)nn12 [Example 84, (E)-7-methoxy-4-[1-phenyl-2-(pyridin-4-yl)vinyl]-2-trifluoromethylpyrazolo[1,5-a]pyridine] | – | < 0.1 µmol/L | – | –
7 | CNc1ccc(C(=O)Cc2c(Cl)cncc2Cl)c2cc(C(F)(F)F)nn12 [Example 99, 2-(3,5-Dichloropyridin-4-yl)-1-(7-(methylamino)-2-(trifluoromethyl)pyrazolo[1,5-a]pyridin-4-yl)ethanone] | 220 to 223 °C | < 0.1 µmol/L | – | –
8 | COc1ccc(C(=O)Cc2c(Cl)c[n+]([O-])cc2Cl)c2cc(C(F)F)nn12 [Example 108, 3,5-Dichloro-4-(2-(2-(difluoromethyl)-7-methoxypyrazolo[1,5-a]pyridin-4-yl)-2-oxoethyl)pyridine 1-oxide] | – | < 0.1 µmol/L | ≥ 60% | –
9 | COc1ccc(CCc2ccncc2)c2cc(C(F)F)nn12 [Example 104, 2-(Difluoromethyl)-7-methoxy-4-(2-(pyridin-4-yl)ethyl)pyrazolo[1,5-a]pyridine] | 121 to 123 °C | – | – | –
10 | COc1ccc(CCc2c(Cl)cncc2Cl)c2cc(C(F)(F)F)nn12 [Example 95, 4-(2-(3,5-Dichloropyridin-4-yl)ethyl)-7-methoxy-2-(trifluoromethyl)pyrazolo[1,5-a]pyridine] | 158 to 160 °C (dec.) | – | – | –
11 | COc1ccc(C(Cc2ccncc2)c2ccccc2)c2cc(C(F)(F)F)nn12 (stereo not shown) [Example 86, 7-Methoxy-4-[1-phenyl-2-(pyridin-4-yl)ethyl]-2-trifluoromethylpyrazolo[1,5-a]pyridine] | – | < 0.1 µmol/L | – | –
12 | CN(C)c1ccc(C(=O)Cc2c(Cl)cncc2Cl)c2cc(C3CC3)nn12 [Example 124, 1-(2-Cyclopropyl-7-(dimethylamino)pyrazolo[1,5-a]pyridin-4-yl)-2-(3,5-dichloropyridin-4-yl)ethanone] | 216 to 220 °C | – | – | –

Continued, in another order:

Row | melting point | IC50 (PDE4B catalytic domain) | SMILES | inhibition in vivo at 3 mg/kg [1] | Inhibition ratio [2]
13 | – | < 0.1 µmol/L | COc1ccc(CCc2cc[n+]([O-])cc2)c2cc(C(F)(F)F)nn12 [Example 91, 4-(2-(7-Methoxy-2-(trifluoromethyl)pyrazolo[1,5-a]pyridin-4-yl)ethyl)pyridine 1-oxide] | ≥ 60% | –
14 | 196 to 200 °C | – | CNc1ccc(C(=O)Cc2c(Cl)cncc2Cl)c2cc(C3CC3)nn12 [Example 123, 1-(2-Cyclopropyl-7-(methylamino)pyrazolo[1,5-a]pyridin-4-yl)-2-(3,5-dichloropyridin-4-yl)ethanone] | – | –
15 | – | < 0.1 µmol/L | COc1ccc(C(=O)Cc2ccncc2)c2cc(C(F)(F)F)nn12 [80 (90), 1-(7-Methoxy-2-trifluoromethylpyrazolo[1,5-a]pyridin-4-yl)-2-(pyridin-4-yl)ethanone] | – | +++ (When the inhibition ratio≧90%, the results were represented by “+++.”)
16 | 234 to 238 °C | – | CN(C)c1ccc(C(=O)Cc2c(Cl)cncc2Cl)c2cc(C(F)(F)F)nn12 [Example 100, 2-(3,5-Dichloropyridin-4-yl)-1-(7-(dimethylamino)-2-(trifluoromethyl)pyrazolo[1,5-a]pyridin-4-yl)ethanone] | – | –
17 | – | < 0.1 µmol/L | COc1ccc(C(=O)Cc2ccncc2)c2cc(C3CC3)nn12 [Example 121, 1-(2-Cyclopropyl-7-methoxypyrazolo[1,5-a]pyridin-4-yl)-2-(pyridin-4-yl)ethanone] | ≥ 60% | –
18 | – | < 0.1 µmol/L | COc1ccc(C(=O)Cc2c(Cl)cncc2Cl)c2c(Cl)c(C3CC3)nn12 [Example 122, 1-(3-Chloro-2-cyclopropyl-7-methoxypyrazolo[1,5-a]pyridin-4-yl)-2-(3,5-dichloropyridin-4-yl)ethanone] | ≥ 60% | –
19 | – | < 0.1 µmol/L | COc1ccc(C(=O)Cc2c(Cl)c[n+]([O-])cc2Cl)c2cc(C(F)(F)F)nn12 [Example 92, 3,5-Dichloro-4-(2-(7-methoxy-2-(trifluoromethyl)pyrazolo[1,5-a]pyridin-4-yl)-2-oxoethyl)pyridine 1-oxide] | ≥ 60% | –
20 | 191 to 194 °C (dec.) | – | COc1ccc(C(=O)Cc2ccncc2Cl)c2cc(C(F)F)nn12 [Example 111, 2-(3-Chloropyridin-4-yl)-1-(2-(difluoromethyl)-7-methoxypyrazolo[1,5-a]pyridin-4-yl)ethanone] | – | –
21 | 186 to 191 °C (dec.) | – | COc1ccc(C(=O)Cc2ccncc2)c2cc(C(F)F)nn12 [Example 109, 1-(2-(Difluoromethyl)-7-methoxypyrazolo[1,5-a]pyridin-4-yl)-2-(pyridin-4-yl)ethanone] | – | –
22 | – | < 0.1 µmol/L | COc1ccc(C(=O)Cc2c(Cl)c[n+]([O-])cc2Cl)c2cc(C#N)nn12 [Example 142, 3,5-Dichloro-4-(2-(2-cyano-7-methoxypyrazolo[1,5-a]pyridin-4-yl)-2-oxoethyl)pyridine 1-oxide] | ≥ 60% | –
23 | – | 0.1 to 1 µmol/L | COc1ccc(C(O)Cc2ccncc2)c2cc(C(F)(F)F)nn12 (stereo not shown) [Example 77, 1-(7-Methoxy-2-trifluoromethylpyrazolo[1,5-a]pyridin-4-yl)-2-(pyridin-4-yl)ethanol] | – | + (When 70%>the inhibition ratio≧30%, the results were represented by “+.”)
